Experimental data reported in paper PMC7862291, “Full-length in meso structure and mechanism of rat kynurenine 3-monooxygenase inhibition” (Communications Biology, 2021).
Where “and” joins values, the source holds several entries; their conditions need not be identical. Identical values can stand only once. Like-named read-outs stand apart in the source and are kept apart here. Values belong to the molecule of their own block, whether it stands above or below them.

Experiments:
hKMO = target: T1, hKMO (Homo sapiens, UniProt O15229); experiment: Human KMO enzyme (cell-free) assay, NADPH consumption by absorbance; type: biochemical; conditions: for inhibition rate, Hs-KMO cell-free assay (Figure 1A source data): duplicates
T1 construct: purchased Origene
Experimental: (§1) Human KMO was purchased from Origene and used to assay compounds. Full-length Rat-KMO purified for crystallisation was used to assay compounds. Full-length Rat-KMO-expressing membranes were used for mutant assays (Fig. 4b) only. […] Images were taken using Odyssey CLX (LI-COR Biosciences) and quantified using ImageStudio2.0 (LI-COR Biosciences) software.
(§2) Test compounds were dissolved in DMSO and diluted with assay buffer containing 50 mM HEPES, 2 mM MgCl2, 0.5 mM EGTA, 1 mM DTT, 0.05% Tween20 and 0.005% of antiform SI (pH = about 7.9) to prepare a 4% DMSO solution. […] After 5 min of pre-incubation, reactions were started by adding 10 μL of substrate solution containing 2.4 mM kynurenine and 0.6 mM NADPH. Reactions were run for 90 min at 30 °C, then terminated by adding 5 μL of stop buffer (40 mM maleimide, 2 mM WST-9 and 0.1 mM 1-methoky PMS in water). […] Liposomal assays were performed in the same manner except that the composition of the assay buffer was changed (phosphate-buffered saline, 2 mM MgCl2, 1 mM DTT, 0.05% Tween 20).
(§3) Compound assays were analysed and plotted on graphs using Prism (GraphPad Software Inc. San Diego, CA, USA).

Rat KMO = target: T2, Rat KMO (Rattus norvegicus, UniProt O88867); experiment: Rat KMO enzyme (cell-free) assay, NADPH consumption by absorbance; type: biochemical; conditions: duplicates
T2 construct: The GST-tagged full-length KMO (1-478) baculovirus vector contained a thrombin cleavage site; GST (thrombin cleavage site between GST and KMO) (N, cleaved yes); made in house; host or cells: Spodoptera frugiperda (Sf9), baculovirus
Experimental: as §1, §2, §3

[1] = target: T3, HEK293 cells stably expressing human KMO (Homo sapiens, UniProt O15229); experiment: Cell-based human KMO inhibition assay (LC/MS of 3-hydroxykynurenine); conditions: for inhibition rate, Hs-KMO cellular assay (Figure 1C source data): duplicates
T3 construct: expressed in transfected cells
Experimental: (§4) HEK293 cells stably expressing human or rat KMO were maintained in DMEM containing 10% fetal bovine serum, 50 units/mL penicillin, 50 μg/mL streptomycin and 0.2 mg⁄mL zeocine. […] After 2 overnights, the medium was replaced with 10 μL/well of assay buffer (1 × HBSS containing 20 mM HEPES). Ten microliters per well of the diluted test compounds (final, 0–30 μM, 0.3% DMSO) were added to the respective wells. After ~30 min of pre-incubation at 37 °C, reactions were started by adding 20 μL of substrate solution containing 0.2 mM kynurenine. Reactions were run for 2 h at 37 °C, the assay buffer was discarded and the plate was immediately frozen and stored at −30 °C until LC/MS analysis.
(§5) An 80 µL volume of cold acetonitrile with 2% formic acid was added to the cell pellet in a 384-well plate and centrifuged at 3000 rpm for 10 min at 4 °C. A 40 µL volume of the supernatant was transferred to a new 384-well plate and evaporated to dryness under nitrogen gas at 45 °C. The residue was reconstituted in 100 µL of acetonitrile/water (10:90, v/v) with 0.1% formic acid, and 1 µL was injected into the LC-MS/MS system.
(§6) LC/MS/MS was performed on a Shimadzu UFLC Nexera X2 (Shimadzu Corporation, Japan) and an QTRAP® 5500 LC-MS/MS System (SCIEX, Framingham, USA). Chromatographic separation was performed using an Allure PFP Propyl analytical column (5 µm, 2.1 × 100 mm) maintained at 50 °C. The autosampler temperature was set at 15 °C. The mobile phase consisted of formic acid/water/acetonitrile/methanol (0.5/500/250/250, v/v/v/v) and the flow rate was set at 0.3 mL/min. 3-hydroxykynurenine was eluted from the LC column at a retention time of 1.2 min. The MS system was operated using electrospray ionization (ESI) in positive mode. The optimum conditions were curtain gas, 20 psi; ion spray voltage, 5500 V; heated nebulizer temperature (TEM), 700 °C; nebulizing gas (GS1), 70 psi; and heater gas (GS2), 70 psi. […] Analyst® software (SCIEX, Framingham, USA) was used for system control and MultiQuant™ Software (SCIEX, Framingham, USA) was used for data analysis.
as §3

[2] = target: T4, HEK293 cells stably expressing rat KMO (Rattus norvegicus, UniProt O88867); experiment: Cell-based rat KMO inhibition assay (LC/MS of 3-hydroxykynurenine); conditions: duplicates
T4 construct: expressed in transfected cells
Experimental: as §4, §5, §6, §3

KMO [3] = tested on: KMO; design: method as in ref 27 Jacobs et al; conditions: 600 μM kynurenine, recombinant protein, fluorescence; ref 27 Jacobs et al; cited from earlier work
KMO [4] = tested on: KMO; design: method as in ref 20 Winkler et al; conditions: 100 kynurenine, CHO cells, LC/MS; ref 20 Winkler et al; read-out: cellular IC50 (Winkler et al); cited from earlier work
[5] = Pharmacokinetic (brain penetration) study in rats; type: in vivo; conditions: Sprague-Dawley Crl:CD(SD), rat, male SD rats, 10 mg/kg ip, 1 h after a single administration
Experimental: Brain penetration studies were conducted in non-fasted male SD rats [Sprague-Dawley rats Crl:CD(SD), 8 weeks of age]. Compound 1 was intraperitoneally (ip) administered at 10 mg/kg in a solution of saline containing 10% dimethylformamide, 10% propylene glycol, and 4% 1 normality (N) sodium hydrate. […] Blood and brain were collected at 1 h after a single administration. The test compound in plasma samples or brain samples was extracted by deproteination with acetonitrile, and then analysed using LC-MS/MS.

T1 sequence (O15229 whole entry): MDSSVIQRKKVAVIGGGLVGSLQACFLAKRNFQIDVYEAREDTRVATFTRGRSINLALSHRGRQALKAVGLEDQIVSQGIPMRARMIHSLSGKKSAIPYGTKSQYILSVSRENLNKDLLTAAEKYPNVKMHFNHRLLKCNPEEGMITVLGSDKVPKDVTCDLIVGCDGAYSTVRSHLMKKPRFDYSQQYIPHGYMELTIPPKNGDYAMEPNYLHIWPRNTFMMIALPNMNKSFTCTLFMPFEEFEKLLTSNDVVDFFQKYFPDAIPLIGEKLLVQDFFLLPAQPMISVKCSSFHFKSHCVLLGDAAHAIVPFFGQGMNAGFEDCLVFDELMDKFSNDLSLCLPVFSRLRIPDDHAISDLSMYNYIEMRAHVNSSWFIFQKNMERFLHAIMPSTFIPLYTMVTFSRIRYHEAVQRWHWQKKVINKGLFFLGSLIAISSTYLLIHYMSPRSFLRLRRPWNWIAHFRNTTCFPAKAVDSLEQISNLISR
T3 sequence (O15229 whole entry): as above
T2 sequence (O88867 whole entry): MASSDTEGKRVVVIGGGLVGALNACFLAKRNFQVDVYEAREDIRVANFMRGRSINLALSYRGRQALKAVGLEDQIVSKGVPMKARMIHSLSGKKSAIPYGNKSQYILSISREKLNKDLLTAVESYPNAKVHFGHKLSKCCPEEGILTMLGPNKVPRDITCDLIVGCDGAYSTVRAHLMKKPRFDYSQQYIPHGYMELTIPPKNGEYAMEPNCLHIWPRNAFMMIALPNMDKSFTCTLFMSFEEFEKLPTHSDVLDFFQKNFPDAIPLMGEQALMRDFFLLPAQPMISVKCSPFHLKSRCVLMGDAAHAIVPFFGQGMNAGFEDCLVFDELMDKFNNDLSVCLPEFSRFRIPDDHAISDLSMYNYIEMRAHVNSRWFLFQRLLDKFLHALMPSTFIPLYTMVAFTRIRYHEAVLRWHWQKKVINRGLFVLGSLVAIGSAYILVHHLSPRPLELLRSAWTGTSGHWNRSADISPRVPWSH
T4 sequence (O88867 whole entry): as above

SMILES: COc1ccc(S(=O)(=O)Nc2nc(-c3cccc([N+](=O)[O-])c3)cs2)cc1OC [Ro 61-8048, reference compound]
- IC50 (hKMO; 1200 μM kynurenine, recombinant protein, absorbance, species not given, read-out: IC50 (cell-free assay, this study)): 1.4 µM
- inhibition rate, Hs-KMO cell-free assay (Figure 1A source data) (hKMO; conc 0.03 μM): 7.785% and 11.650%
- inhibition rate, Hs-KMO cell-free assay (Figure 1A source data) (hKMO; conc 0.1 μM): 5.377% and 7.729%
- inhibition rate, Hs-KMO cell-free assay (Figure 1A source data) (hKMO; conc 0.3 μM): 12.406% and 14.871%
- inhibition rate, Hs-KMO cell-free assay (Figure 1A source data) (hKMO; conc 1 μM): 37.359% and 37.779%
- inhibition rate, Hs-KMO cell-free assay (Figure 1A source data) (hKMO; conc 3 μM): 72.366% and 74.382%
- inhibition rate, Hs-KMO cell-free assay (Figure 1A source data) (hKMO; conc 10 μM): 94.630%
- inhibition rate, Hs-KMO cell-free assay (Figure 1A source data) (hKMO; conc 30 μM): 102.611% and 104.600%
- inhibition rate, Hs-KMO cell-free assay (Figure 1A source data) (hKMO; conc 100 μM): 98.579% and 94.322%
- inhibition rate, Rat-KMO cell-free assay (Figure 1B source data) (Rat KMO; conc 0.03 μM): 9.186% and 13.905%
- inhibition rate, Rat-KMO cell-free assay (Figure 1B source data) (Rat KMO; conc 0.1 μM): 21.990% and 21.221%
- inhibition rate, Rat-KMO cell-free assay (Figure 1B source data) (Rat KMO; conc 0.3 μM): 47.520% and 47.997%
- inhibition rate, Rat-KMO cell-free assay (Figure 1B source data) (Rat KMO; conc 1 μM): 71.114% and 72.121%
- inhibition rate, Rat-KMO cell-free assay (Figure 1B source data) (Rat KMO; conc 3 μM): 77.185% and 81.347%
- inhibition rate, Rat-KMO cell-free assay (Figure 1B source data) (Rat KMO; conc 10 μM): 87.099% and 89.538%
- inhibition rate, Rat-KMO cell-free assay (Figure 1B source data) (Rat KMO; conc 30 μM): 98.075% and 95.980%
- inhibition rate, Rat-KMO cell-free assay (Figure 1B source data) (Rat KMO; conc 100 μM): 89.963% and 91.580%
- IC50 ([1]; 100 μM kynurenine, HEK293, LC/MS, species not given, read-out: cellular IC50 (this study)): 1.2 µM
- inhibition rate, Hs-KMO cellular assay (Figure 1C source data) ([1]; conc 0.03 μM): 4.914% and 11.092%
- inhibition rate, Hs-KMO cellular assay (Figure 1C source data) ([1]; conc 0.1 μM): 7.800% and 13.947%
- inhibition rate, Hs-KMO cellular assay (Figure 1C source data) ([1]; conc 0.3 μM): 9.982% and 16.379%
- inhibition rate, Hs-KMO cellular assay (Figure 1C source data) ([1]; conc 1 μM): 34.540% and 30.293%
- inhibition rate, Hs-KMO cellular assay (Figure 1C source data) ([1]; conc 3 μM): 100.863% and 99.409%
- inhibition rate, Hs-KMO cellular assay (Figure 1C source data) ([1]; conc 10 μM): 104.869% and 104.896%
- inhibition rate, Hs-KMO cellular assay (Figure 1C source data) ([1]; conc 30 μM): 105.453%
- inhibition rate, Rat-KMO cellular assay (Figure 1D source data) ([2]; conc 0.03 μM): 12.914% and 13.940%
- inhibition rate, Rat-KMO cellular assay (Figure 1D source data) ([2]; conc 0.1 μM): 6.038% and 6.971%
- inhibition rate, Rat-KMO cellular assay (Figure 1D source data) ([2]; conc 0.3 μM): 6.605% and 2.668%
- inhibition rate, Rat-KMO cellular assay (Figure 1D source data) ([2]; conc 1 μM): 18.248% and 25.802%
- inhibition rate, Rat-KMO cellular assay (Figure 1D source data) ([2]; conc 3 μM): 86.872% and 86.727%
- inhibition rate, Rat-KMO cellular assay (Figure 1D source data) ([2]; conc 10 μM): 97.726% and 97.601%
- inhibition rate, Rat-KMO cellular assay (Figure 1D source data) ([2]; conc 30 μM): 99.995% and 100.184%
- IC50 (KMO [3]): 0.78 ± 1 µM
- IC50 (KMO [4]): 0.64 µM

- Kp at 1 h ([5]; brain/plasma): 0.8
- concentration at 1 h ([5]; brain, read-out: Exposure in brain): 6020 ng/g
- concentration at 1 h ([5]; plasma, read-out: Exposure in plasma): 7560 ng/mL
SMILES: Cn1c(=O)[nH]c(=O)c2cc(-c3ncccc3-c3ccc(Cl)c(F)c3)ccc21 [Compound 5]
